# From patent publication US20250228890A1, “ANTI-CANCER FORMULATION COMPRISING SODIUM PENTABORATE, CURCUMIN AND PIPERINE FOR USE IN THE TREATMENT OF HEPATOCELLULAR CARCINOMA” (Yeditepe Universitesi, priority 2022, published 2025)
# Assays:
# HepG2 cells = experiment: MTS cell viability assay, HepG2 cells; type: cell-based, Human; settings: 48 hours
# Description: (§1) Human hepatocellular cancer cell lines, HepG2 (HB-8065, ATCC), Hep3B (HB-8064, ATCC) and HUVEC (CRL-1730) cells are cultured in a growth medium (2 mM L-glutamine, 100 U/ml penicillin, 100 µg/ml streptomycin) of Dulbecco's modified Eagle's medium (DMEM) containing 10% heat inactivated FBS in a humidified atmosphere at 37° C. with 5% CO2. Cells are passaged at 3-day intervals.
# (§2) (NaB: B5H10NaO13), Curcumin (Sigma, C1386), and Piperine (Sigma, P49007). At the end of 24, 48 and 72 hours, cell viability were measured. Cell viability assay was performed by 3-(4,5-di-methyl-thiazol-2-yl)-5-(3-carboxy-methoxy-phenyl)-2-(4-sulfo-phenyl)-2H-tetrazolium (MTS) method (CellTiter96 AqueousOne Solution; Promega, Southampton, UK) following the manufacturer's protocol. After 2 hours of incubation time, the cell viability assay is conducted by measuring at 490 nm using an ELISA microplate reader (Bio-tek ELx800, USA). IC50 value for 48 hours was calculated.
# (§3) The combination index (CI) is used to determine the degree of drug interaction. The concentration of inhibition in the combination is the sum of the ratio of the dose of each drug to the dose of each drug used alone. […] The formalization is as follows:
# (§4) [formula] • (Dx)1, (Dx)2: Individual IC50 values of the substances • (D)1, (D)2: Concentrations of substances in the combination
# Hep3B cells [1] = experiment: MTS cell viability assay, Hep3B cells; type: cell-based, Human; settings: 48 hours
# Description: as §1, §2, §3, §4
# Hep3B cells [2] = settings: literature study [20]; cited from earlier work
IC50 (HepG2 cells) [µM],IC50 (Hep3B cells [1]) [µM],IC50 (HepG2 cells; Homo sapiens) [µM],IC50 (Hep3B cells [1]; Homo sapiens) [µM],Molecule,proliferation of Hep3B cells (Hep3B cells [2])
7660,6560,–,–,sodium pentaborate pentahydrate,decreased the proliferation of Hep3B cells
–,–,44.8,41.4,COc1cc(/C=C/C(=O)CC(=O)/C=C/c2ccc(O)c(OC)c2)ccc1O [curcumin],–
–,–,> 150,> 150,O=C(/C=C/C=C/c1ccc2c(c1)OCO2)N1CCCCC1 [piperine],–
